Consider one compound from BindingDB's records for patent US12187701 (Dana-Farber Cancer Institute, 2025).

For orientation: IC50 means the concentration needed to halve the response being measured. A low value points to higher potency.

The target of the assay is Cyclin-dependent kinase 14 (Homo sapiens, UniProt O94921). Description: In vitro Kinase Assay. How it is done:
Lanthascreen Eu kinase binding assays were conducted for Cdk14/CycY largely as performed in the commercial assay service by Life Technologies, but included a 30 minute pre-incubation step of the kinase with candidate compounds to facilitate covalent bond formation.

Chain of Cyclin-dependent kinase 14 (O94921 whole entry): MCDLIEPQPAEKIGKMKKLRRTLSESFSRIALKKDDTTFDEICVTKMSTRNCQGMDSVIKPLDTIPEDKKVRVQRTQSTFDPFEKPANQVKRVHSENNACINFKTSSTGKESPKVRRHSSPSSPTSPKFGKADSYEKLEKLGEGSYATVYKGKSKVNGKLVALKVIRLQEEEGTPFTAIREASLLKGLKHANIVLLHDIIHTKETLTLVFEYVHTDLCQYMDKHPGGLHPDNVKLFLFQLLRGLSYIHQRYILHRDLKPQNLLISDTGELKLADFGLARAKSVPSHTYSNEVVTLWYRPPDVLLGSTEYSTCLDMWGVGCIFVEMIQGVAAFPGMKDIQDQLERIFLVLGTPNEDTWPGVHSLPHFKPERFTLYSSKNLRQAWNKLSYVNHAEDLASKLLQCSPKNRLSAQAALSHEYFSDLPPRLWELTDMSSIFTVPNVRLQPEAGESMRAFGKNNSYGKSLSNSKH

As for `CN(C)C/C=C/C(=O)Nc1cccc(CNC(=O)c2n[nH]cc2NC(=O)c2c(Cl)cccc2Cl)c1` [US12187701, Compound FMF-05-064-2], the concentration for half-maximal inhibition (IC50) stood at 108 nM.
